The values that follow come from patent US9078838B2, “Cosmetic or dermatological compositions comprising a mixture of essential oils, and its uses thereof, particularly for the care of sensitive or sensitized skin” (LVMH Recherche, priority 2008, dated 2015).

No end group written: not given here.

The test system of the experiment is explants of human skin. As to the kind of experiment: Release of histamine induced by CRH in explants of human skin (ex vivo cutaneous stress model, ELISA). In kind it is cell-based. The method, then: To evaluate the activity of the combination of the invention on the release of histamine, which is an allergy mediator, a cutaneous stress model is reproduced ex vivo by applying a solution of CRH in the survival medium of explants of human skin.
Three explants of skin with a diameter of 8 mm are prepared from healthy human skin originating from surgical removal.
They are placed in 24-well plates and left to stand in an appropriate medium (MCDB 153, insulin, CaCl2, gentamycin) for 24 hours.
CRH (from Neosystem) is dissolved at a concentration of 231 μM in phosphate buffer (PBS) (pH 7.2).
First of all a 5% by weight (50 mg/ml) solution is prepared for each of the essential oils, in ethanol for the helichrysum oil and in DMSO for the cannabis oil.
The 5% by weight solutions are subsequently diluted at the time of use to 1/1000th in the survival medium of the explants, to give the different treatment solutions.
The combination of cannabis and helichrysum essential oils is tested in the form of a treatment solution containing these two essential oils, each at a concentration of 0.005% by weight (50:50 ratio). Each essential oil is likewise tested on its own in the form of a 0.005% by weight treatment solution.
In each well the explant is at the surface of the survival medium. […]
In general terms: An ELISA detects its analyte on a solid surface through an enzyme-linked reagent.

As to “corticotropin-releasing hormone (SEEPPISLDLTFHLLREVLEMARAEQLAQQAHSNRKLMEII; not fully specified (C-terminus); ends and bridges not checked; UniProt P06850 154-194, looked up) [CRH, CRH (from Neosystem), stimulus of histamine release, positive control]”, for the setting “CRH on skin explants maintained in survival mode”, the “Stimulation of the release of histamine by skin explants (in words)” value is on record as “induces significant stimulation of the release of histamine”. Also, the Histamine (stimulated with CRH 7.7 μM for 2 hours, no essential oil pretreatment (positive control), solvent control 15.3 +/− 1.0) is 21.8 ± 1.4 ng/mL.
